Values after ≈ are worked out from the molar mass of the structure shown. Blank lines part the entries; values can stand above or below the molecule they belong to.
Legend:
Format in all cases: cell-based
IL-8 [1] = assay: Inhibition of SDS-induced IL-8 release in human epidermal keratinocytes (ELISA); conditions: HEK, SDS 6 μg/ml, 16 hours
Method: The protocols for the growth and treatment of human primary epidermal keratinocyte (HEK) cultures are as follows. HEK and all cell culture supplies were obtained from Life Technologies Co. (Carlsbad, Calif.). The cells were maintained in keratinocyte growth medium (KGM), which contains keratinocyte basal medium 154 (M154) and human keratinocyte growth supplements (HKGS). They were grown at 37° C. in an atmosphere of 5% (v/v) CO2 and used between passages from 2 to 4. For the treatment, keratinocytes were trypsinized by Trypsin 0.025%/EDTA 0.01% in Phosphate Buffered Saline, seeded in 96-well plates, and grown in KGM to about 80% confluence. The cells were then exposed to SDS (Sigma-Aldrich Co., St. Louis, Mo.) at various concentrations for about 16 hours. After incubation, the supernatants were collected, and IL-1α and IL-8 were quantified using Quantikine® ELISA (R&D Systems, Minneapolis, Minn.). […] IC50 was calculated using sigmoidal curve fitting with SigmaPlot Version 10.0 (Systat Software). […]
Treatment was conducted by incubation of HEK with SDS (25 μg/ml for induction of IL-1α or 6 μg/ml for induction of IL-8 as determined in Example 1) for 16 hours in presence of a range of concentrations of Recentia® CS, or conventional green tea preparation, or conventional black tea preparation.

IL-1α [2] = assay: Inhibition of SDS-induced IL-1α release in human epidermal keratinocytes (ELISA); conditions: Keratinocyte, HEK, SDS 25 μg/ml, 16 hours, read-out: Estimated IC50 for inhibition of SDS-induced IL-1α release
IL-1α [3] = assay: Inhibition of ethoxylated alcohol-induced IL-1α release in human epidermal keratinocytes (ELISA); conditions: HEK, ethoxylated alcohol 1000 μg/ml, 16 hours
Method: Treatment was conducted by incubation of HEK with ethoxylated alcohol (1000 μg/ml for induction of IL-1α as determined in Example 3) for 16 hours in presence of a range of concentrations of Recentia® CS, or Aspirin.
Treatment was conducted by incubation of HEK with ethoxylated alcohol (500 μg/ml for induction of IL-1α, as determined in Example 3) for 16 hours in presence of a range of concentrations of Recentia® CS, or conventional green tea preparation or conventional black tea preparation.

IL-8 [4] = assay: Inhibition of basal level non-induced IL-8 release in human epidermal keratinocytes; conditions: HEK, 16 hours
Method: (§1) The protocols for the growth and treatment of human primary epidermal keratinocyte (HEK) cultures are as follows. HEK and all cell culture supplies were obtained from Life Technologies Co. (Carlsbad, Calif.). The cells were maintained in keratinocyte growth medium (KGM), which contains keratinocyte basal medium 154 (M154) and human keratinocyte growth supplements (HKGS). They were grown at 37° C. in an atmosphere of 5% (v/v) CO2 and used between passages from 2 to 4. For the treatment, keratinocytes were trypsinized by Trypsin 0.025%/EDTA 0.01% in Phosphate Buffered Saline, seeded in 96-well plates, and grown in KGM to about 80% confluence. The cells were then exposed to SDS (Sigma-Aldrich Co., St. Louis, Mo.) at various concentrations for about 16 hours. After incubation, the supernatants were collected, and IL-1α and IL-8 were quantified using Quantikine® ELISA (R&D Systems, Minneapolis, Minn.). Results were presented as the mean±standard deviation. IC50 was calculated using sigmoidal curve fitting with SigmaPlot Version 10.0 (Systat Software). LDH (lactate dehydrogenase) assay (G-Biosciences, St. Louis, Mo.) was performed on all the supernatants to assess cytotoxicity.
The protocols for the growth of HEK are described under Example 1.

[5] = tested on: human epidermal keratinocytes (HEK); assay: Mildness ranking of surfactants by LDH cytotoxicity and IL-1α release in HEK; conditions: based on LDH cytotoxicity and IL-1α induction in HEK
Method: as §1, with “cytotoxicity. […]” for “cytotoxicity.”

IL-8 [6] = assay: Surfactant induction of IL-8 release in human epidermal keratinocytes; conditions: HEK, 16 hours, SDS at 6 μg/ml
Method: as §1
(§2) The protocols for the growth of HEK are described under Example 1. Instead of SDS, the keratinocytes were exposed to a range of concentrations of ethoxylated alcohol for about 16 hours.

IL-1α [7] = assay: Surfactant induction of IL-1α release in human epidermal keratinocytes; conditions: HEK, 16 hours, SDS at 25 μg/ml
Method: as §1, §2

IC50 (IL-1α [2]): ~230 µg/mL (≈ 1280 µM)
Compound: CC(=O)Oc1ccccc1C(=O)O [Aspirin]
Inhibition of SDS-induced IL-8 release (in words) (IL-8 [1]): did not inhibit SDS-induced release of inflammatory chemokine IL-8 | Inhibition of ethoxylated alcohol-induced IL-1α release (in words) (IL-1α [3]): failed to inhibit IL-1α release induced by the ethoxylated alcohol

Compound: C[S+]([O-])c1ccc(-c2nc(-c3ccncc3)c(-c3ccc(F)cc3)[nH]2)cc1 (stereo not shown) [SB203580]
Inhibition of basal level non-induced IL-8 release (in words) (IL-8 [4]): inhibited SDS-induced IL-8 only

Compound: CCCCCCCCCCCCOS(=O)(=O)[O-].[Na+] [SDS, Sodium Dodecyl Sulfate]
Mildness/harshness rank among six tested surfactants [5]: close to the harshest surfactant | Induction of IL-8 release by surfactant (IL-8 [6]): significant (p<0.001) induction of IL-8 | Induction of IL-1α release by surfactant (IL-1α [7]): significant (p<0.001) induction of IL-1α

— US20160000851A1, “Bioactive Botanical Compositions and Uses Thereof” (AKZO NOBEL CHEMICALS INTERNATIONAL B.V., priority 2013, published 2016)
